# According to patent US20250179027A1, “CYCLOALKYL OR HETEROCYCLYL SUBSTITUTED HETEROARYL COMPOUND, AND COMPOSITION AND USE THEREOF” (Shenzhen TargetRx, Inc., priority 2022, published 2025):
# How the values were obtained:
# Assay type in all cases: biochemical
# Details in all cases: HTRF TK kit
# [1] = biological target: T1, BTK C481S kinase (Homo sapiens, UniProt Q06187, C481S); experiment: HTRF kinase activity inhibition assay, BTK C481S
# T1 construct: purchased Carna 08-547
# Source text: (§1) In this assay, the HTRF TK Kit (Catalog No. 62TKOPEC) provided by Cisbio was used to detect the inhibitory activity of compounds on BTK kinase and BTK C481S kinase and the selectivity of compounds relative to EGFR, ITK and TEC kinases.
# (§2) Reagents and consumables: BTK kinase (Invitrogen, Catalog No. PV3587), BTK C481S (Carna, Product No. 08-547), ITK (Carna, Product No. 08-181), EGFR (Carna, Product No. 08-115), TEC (Carna, Product No. 08-182), HTRF-TK kit (Cisbio, Product No. 62TKOPEC), MgCl2 (Sigma, Product No. M1028), MnCl2 (Sigma, Product No. M1787), DTT (Sigma, Product No. D0632), ATP (Sigma, Product No. A7699-1 g), DMSO (Sigma, Product No. D2650), 384-well plate (PE, Product No. 6008280).
# (§3) The entire operation steps were carried out on ice, and the total reaction volume was 10 μL. The compound (4 μL), substrate and ATP (4 μL), kinase (2 μL) were added in sequence to a 384-well plate, and shaked for 30 seconds. After an appropriate time at room temperature, the detection reagent was added. After 1 hour at room temperature, the plate was detected with a microplate reader. The specific steps were as follows: • a) 1× kinase buffer solution required for kinase detection was calculated according to the amount of the detection compound, and prepared as needed; • b) compounds with 2.5×working concentration were prepared, the 100 times gradient concentration solution of compounds was diluted by 4 μL to the desired concentration, mixed well, and added to each well at 4 μL per well; • c) 5×working concentration of substrate and ATP were prepared, mixed in a ratio of 1:1 before adding to a 384-well plate, and added to each well at 4 μL per well; • d) 5×working concentration of kinase was prepared, and 2 μL was added to each well; • e) the plate was shaked on a microplate oscillator for 30 seconds, sealed with a sealing membrane, and reacted at room temperature for an appropriate time; • f) 4×working concentrations of streptavidin XL-665 and TK antibody-cryptate compound were prepared, mixed in a ratio of 1:1 before adding to a 384-well plate, and added to each well at 10 μL per well; • g) the plate was read after reacting at room temperature for 1 hour; • h) the wells with only substrate, ATP and 1% DMSO added but no kinase were blank control wells, and the wells with only substrate, ATP, 1% DMSO and kinase were positive control wells.
# (§4) Readings: The values of 620 nm (cryptate) and 665 nm (XL665) were read with a BioTek Synerg Neo2 microplate reader, the ratio of 665/620 per well was calculated, and the data were exported. Data analysis: IC50 was calculated using GraphPad Prism 7.0 software. The following nonlinear fitting formula was used to obtain the IC50 (half inhibitory concentration) of compounds:
# (§5) [formula] • X: Compound concentration log value • Y: Inhibition rate (% inhibition)
# (§6) The kinase inhibition rate (% inhibition rate) was calculated as: […]
# [2] = biological target: T2, EGFR (Homo sapiens, UniProt P00533); experiment: HTRF kinase activity inhibition assay, EGFR
# T2 construct: purchased Carna 08-115
# Source text: as §1, §2, §3, §4, §5, §6
# [3] = biological target: T3, TEC (Homo sapiens, UniProt P42680); experiment: HTRF kinase activity inhibition assay, TEC
# T3 construct: purchased Carna 08-182
# T3 sequence (P42680 1-631): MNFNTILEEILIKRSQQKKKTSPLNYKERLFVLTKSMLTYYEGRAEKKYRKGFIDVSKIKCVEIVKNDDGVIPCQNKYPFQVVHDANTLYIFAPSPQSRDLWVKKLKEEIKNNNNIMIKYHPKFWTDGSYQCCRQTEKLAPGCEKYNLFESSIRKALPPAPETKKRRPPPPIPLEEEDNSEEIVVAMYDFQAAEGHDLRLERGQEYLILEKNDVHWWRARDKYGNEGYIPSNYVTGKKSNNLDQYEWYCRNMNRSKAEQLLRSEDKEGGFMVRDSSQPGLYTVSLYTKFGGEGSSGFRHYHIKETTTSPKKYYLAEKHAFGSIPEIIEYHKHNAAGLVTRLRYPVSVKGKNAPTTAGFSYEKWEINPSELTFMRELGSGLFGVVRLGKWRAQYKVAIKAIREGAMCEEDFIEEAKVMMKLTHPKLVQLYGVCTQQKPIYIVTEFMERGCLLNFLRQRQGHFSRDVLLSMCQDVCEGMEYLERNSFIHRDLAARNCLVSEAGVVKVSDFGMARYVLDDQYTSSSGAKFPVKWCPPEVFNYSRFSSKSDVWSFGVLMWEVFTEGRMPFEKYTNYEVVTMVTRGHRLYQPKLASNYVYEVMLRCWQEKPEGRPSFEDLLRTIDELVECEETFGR
# Source text: as §1, §2, §3, §4, §5, §6
# T2 sequence (P00533 669-1210 limits assumed): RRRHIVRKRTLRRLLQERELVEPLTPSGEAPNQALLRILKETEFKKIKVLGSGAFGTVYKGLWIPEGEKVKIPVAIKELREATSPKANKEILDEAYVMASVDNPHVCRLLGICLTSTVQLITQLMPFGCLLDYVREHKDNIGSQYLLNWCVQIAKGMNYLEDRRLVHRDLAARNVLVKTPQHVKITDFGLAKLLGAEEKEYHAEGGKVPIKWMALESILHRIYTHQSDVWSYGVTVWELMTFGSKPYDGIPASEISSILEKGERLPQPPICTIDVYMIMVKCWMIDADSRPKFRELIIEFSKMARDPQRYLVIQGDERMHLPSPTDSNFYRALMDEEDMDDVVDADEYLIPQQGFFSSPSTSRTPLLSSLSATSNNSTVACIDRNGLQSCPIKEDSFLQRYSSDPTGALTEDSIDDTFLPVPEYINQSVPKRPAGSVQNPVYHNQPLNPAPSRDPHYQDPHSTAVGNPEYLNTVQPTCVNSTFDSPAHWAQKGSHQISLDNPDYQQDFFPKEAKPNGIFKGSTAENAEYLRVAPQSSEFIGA
# T1 sequence (Q06187 whole entry C481S): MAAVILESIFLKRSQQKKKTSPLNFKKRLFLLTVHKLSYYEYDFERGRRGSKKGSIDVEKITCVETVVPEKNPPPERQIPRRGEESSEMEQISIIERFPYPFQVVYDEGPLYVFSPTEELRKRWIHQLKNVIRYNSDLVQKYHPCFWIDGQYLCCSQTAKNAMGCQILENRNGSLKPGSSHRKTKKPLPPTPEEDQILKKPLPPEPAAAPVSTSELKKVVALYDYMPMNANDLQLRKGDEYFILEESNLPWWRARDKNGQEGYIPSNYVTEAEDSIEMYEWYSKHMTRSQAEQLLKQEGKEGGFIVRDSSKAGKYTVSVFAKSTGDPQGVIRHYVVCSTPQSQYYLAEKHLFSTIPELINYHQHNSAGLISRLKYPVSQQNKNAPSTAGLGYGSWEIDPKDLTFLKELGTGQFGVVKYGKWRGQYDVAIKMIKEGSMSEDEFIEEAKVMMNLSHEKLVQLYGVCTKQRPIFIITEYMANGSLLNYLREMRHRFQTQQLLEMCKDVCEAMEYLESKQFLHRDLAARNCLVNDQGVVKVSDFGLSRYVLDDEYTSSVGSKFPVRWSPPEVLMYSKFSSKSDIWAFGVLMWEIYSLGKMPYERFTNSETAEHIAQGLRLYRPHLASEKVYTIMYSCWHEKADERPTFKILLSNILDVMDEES
IC50 [1],IC50 [2],IC50 [3],SMILES
≤ 10 nM,50 to 100 nM,100 to 1000 nM,"COc1ccc(F)cc1C(=O)NCc1ccc(-c2nn([C@H]3CC[C@@H](O)CC3)c3ncnc(N)c23)cc1 [Example 30, N-(4-(4-amino-1-((1S,4S)-4-hydroxycyclohexyl)-1H-pyrazolo[3,4-d]pyrimidin-3-yl)benzyl)-5-fluoro-2-methoxybenzamide]"
≤ 10 nM,50 to 100 nM,100 to 1000 nM,"COc1ccc(F)cc1C(=O)NCc1ccc(-c2nn(C3CCC(CO)OC3)c3ncnc(N)c23)cc1 (single isomer, unassigned) [Example 18, N-(4-(4-amino-1-(6-(hydroxymethyl)tetrahydro-2H-pyran-3-yl)-1H-pyrazolo[3,4-d]pyrimidin-3-yl)benzyl)-5-fluoro-2-methoxybenzamide]"
≤ 10 nM,10 to 50 nM,100 to 1000 nM,"COc1ccc(F)cc1C(=O)NCc1ccc(-c2nn([C@H]3CC[C@H](CO)CC3)c3ncnc(N)c23)cc1 [Example 56, trans-N-(4-(4-amino-1-((1R,4R)-4-(hydroxymethyl)cyclohexyl)-1H-pyrazolo[3,4-d]pyrimidin-3-yl)benzyl)-5-fluoro-2-methoxybenzamide]"
10 to 50 nM,10 to 50 nM,100 to 1000 nM,"COc1ccc(F)cc1C(=O)NCc1ccc(-c2nc(C3CCCC(O)C3)n3ccnc(N)c23)cc1 (stereo not drawn) [Example 20, N-(4-(8-amino-3-(3-hydroxycyclohexanyl)imidazo[1,5-a]pyrazin-1-yl)benzyl)-5-fluoro-2-methoxybenzamide]"
≤ 10 nM,10 to 50 nM,100 to 1000 nM,"COc1ccc(F)cc1C(=O)NCc1ccc(-c2nc(C3CCCC(O)C3)n3ccnc(N)c23)cc1 (single isomer, unassigned) [Example 22, N-(4-(8-amino-3-(3-hydroxycyclohexanyl)imidazo[1,5-a]pyrazin-1-yl)benzyl)-5-fluoro-2-methoxybenzamide]"
≤ 10 nM,≤ 10 nM,100 to 1000 nM,"COc1ccc(F)cc1C(=O)NCc1ccc(-c2cc(C3CCC(CO)OC3)n3ncnc(N)c23)cc1 (single isomer, unassigned) [Example 60, N-(4-(4-amino-7-(6-(hydroxymethyl)tetrahydro-2H-pyran-3-yl)pyrrolo[2,1-f][1,2,4]triazin-5-yl)benzyl)-5-fluoro-2-methoxybenzamide]"
≤ 10 nM,50 to 100 nM,100 to 1000 nM,"COc1ccc(F)cc1C(=O)NCc1ccc(-c2nn(C3CCC(O)CC3)c3ncnc(N)c23)cc1 [Example 29, N-(4-(4-amino-1-((1R,4R)-4-hydroxycyclohexyl)-1H-pyrazolo[3,4-d]pyrimidin-3-yl)benzyl)-5-fluoro-2-methoxybenzamide]"
10 to 50 nM,10 to 50 nM,1000 to 10000 nM,"COc1ccc(F)cc1C(=O)NCc1ccc(-c2cc(C3CCC(CO)OC3)n3ncnc(N)c23)cc1 (single isomer, unassigned) [Example 59, N-(4-(4-amino-7-(6-(hydroxymethyl)tetrahydro-2H-pyran-3-yl)pyrrolo[2,1-f][1,2,4]triazin-5-yl)benzyl)-5-fluoro-2-methoxybenzamide]"
≤ 10 nM,10 to 50 nM,100 to 1000 nM,"COc1ccc(F)cc1C(=O)NCc1ccc(-c2nn([C@H]3CC[C@@H](CO)CC3)c3ncnc(N)c23)cc1 [Example 55, cis-N-(4-(4-amino-1-((1S,4S)-4-(hydroxymethyl)cyclohexyl)-1H-pyrazolo[3,4-d]pyrimidin-3-yl)benzyl)-5-fluoro-2-methoxybenzamide]"
≤ 10 nM,100 to 1000 nM,100 to 1000 nM,"COc1ccc(F)cc1C(=O)NCc1ccc(-c2nn(C3CCC(O)C3)c3ncnc(N)c23)cc1 (single isomer, unassigned) [Example 31, N-(4-(4-amino-1-(3-hydroxycyclopentanyl)-1H-pyrazolo[3,4-d]pyrimidin-3-yl)benzyl)-5-fluoro-2-methoxybenzamide]"

SMILES,IC50 [1],IC50 [2],IC50 [3]
"COc1ccc(F)cc1C(=O)NCc1ccc(-c2nn(C3CCCC(O)C3)c3ncnc(N)c23)cc1 (single isomer, unassigned) [Example 8]",10 to 50 nM,100 to 1000 nM,1000 to 10000 nM
"COc1ccc(F)cc1C(=O)NCc1ccc(-c2nn(C3CCCC(O)C3)c3ncnc(N)c23)cc1 (single isomer, unassigned) [Example 7]",≤ 10 nM,100 to 1000 nM,100 to 1000 nM
"COc1ccc(F)cc1C(=O)NCc1ccc(-c2nn(C3CCCC(O)C3)c3ncnc(N)c23)cc1 (single isomer, unassigned) [Example 5]",≤ 10 nM,50 to 100 nM,100 to 1000 nM
COc1ccc(F)cc1C(=O)NCc1ccc(-c2nn(C3CCCC(O)C3)c3ncnc(N)c23)cc1 (stereo not drawn) [Example 4],≤ 10 nM,100 to 1000 nM,100 to 1000 nM
"COc1ccc(F)cc1C(=O)NCc1ccc(-c2nn(C3CCCC(O)C3)c3ncnc(N)c23)cc1 (single isomer, unassigned) [Example 6]",≤ 10 nM,50 to 100 nM,100 to 1000 nM
